Test results reported in ChEMBL document CHEMBL1938321, “Cu-mediated N-arylation of 1,2,3-triazin-4-ones: synthesis of fused triazinone derivatives as potential inhibitors of chorismate mutase” (Bioorg Med Chem Lett, 2012).

Tests used:
[1] = test system: Mycobacterium tuberculosis H37Rv; assay: Inhibition of Mycobacterium tuberculosis H37Rv chorismate mutase expressed in Escherichia coli assessed as inhibition of prephenate formation at 50 uM after 1 to 5 mins by spectrophotometry
[2] = (§1) Inhibition of Mycobacterium tuberculosis H37Rv chorismate mutase expressed in Escherichia coli assessed as inhibition of prephenate formation after 1 to 5 mins by spectrophotometry
[3] = test system: Mycobacterium tuberculosis H37Rv; assay: as §1

Row | Compound | inhibition [1] | IC50 [2] | inhibition [3]
1 | O=c1c2c3c(sc2nnn1-c1ccc(F)cc1)CCCC3 | 25% | – | –
2 | O=c1c2ccccc2nnn1-c1ccccc1 | 12% | – | –
3 | COc1cc(CCNc2c([N+](=O)[O-])cc(C(=O)O)cc2S(N)(=O)=O)cc(OC)c1 | – | < 10 µM | –
4 | CCCc1nn(C)c2c(=O)n(-c3cccc(Cl)c3)nnc12 | 30% | – | –
5 | O=c1c2c3c(sc2nnn1-c1ccc2ccccc2c1)CCCC3 | 37% | – | –
6 | O=c1c2ccccc2nnn1-c1ccc2ccccc2c1 | 40% | – | –
7 | CCCc1nn(C)c2c(=O)n(-c3ccc4ccccc4c3)nnc12 | 61% | 15.1 µM | Dose-dependent effect
8 | CCCc1nn(C)c2c(=O)n(-c3ccccc3)nnc12 | 10% | – | –
9 | CCCc1nn(C)c2c(=O)n(-c3ccc(F)cc3)nnc12 | 24% | – | –
